These results are taken from patent US9115151B2, “Substituted 2,10-dihydro-9-oxa-1,2,4A-triazaphenanthren-3-ones and uses thereof” (AbbVie Inc., priority 2012, dated 2015).

The term IC50 denotes the concentration needed to halve the response being measured.

Structures can show the parent of a compound that is named as a salt.

One assay addresses T1, PKCθ (Homo sapiens, UniProt Q04759).
T1 construct: His6; purchased Millipore; host or cells: baculovirus in Sf21 cells
Nature of the assay: In vitro enzyme assay (time-resolved fluorescence kinase assay), PKCθ, 100 μM ATP. The assay is classed as biochemical. As to the method:
(§1) PKC kinase activity was assayed by time-resolved fluorescence in vitro kinase assay. Unless otherwise indicated, all reagents used for enzyme assays were obtained from Sigma. Specifically, 5 μL N- or C-terminal His6-tagged, recombinant, human PKC, expressed by baculovirus in Sf21 cells (Millipore) was mixed with 5 μL inhibitor (various concentrations, 5% final DMSO), 5 μL Bio-cdc peptide (Biotin-Ahx-[…], 2 μM final concentration, New England Peptide) and 5 μL of ATP (100 μM or 1000 μM final concentration) in 1× reaction buffer, 20 μL final volume.
(§2) Following a sixty minute incubation at room temperature, the reaction was quenched with 5 μL of 0.5 M EDTA pH 7.5.
(§3) Background counts from a minus enzyme control is subtracted from all data. Data (after background correction) are converted to percent activity by dividing by the signal obtained from PKC without drug sample.

The target of a further assay is T2, PKCα (Homo sapiens, UniProt P17252).
T2 construct: His6; purchased Millipore; host or cells: baculovirus in Sf21 cells
The experiment in a line: In vitro enzyme assay (time-resolved fluorescence kinase assay), PKCα, 100 μM ATP. Particulars: 100 μM ATP; read-out: PKCα enzyme IC50. It is filed as biochemical. As to the method:
as §1, §2, §3

For assay [1], the system named is CD3/CD28 induced IL-2 in human T-Blasts. The experiment in a line: T-Blasts CD3/CD28 induced IL-2 assay. It is filed as cell-based. To be noted: read-out: CD3/CD28-stimulated IL2 in T-blasts EC50. As to the method: T-Blasts CD3/CD28 Induced IL-2 Assay
Human T-Blasts are generated using PHA following standard protocols. T-Blasts are freeze aliquoted and vials thawed as required. […] Seed 2×10^5/100 μL cell suspension per well in flat bottomed 96 well plate. Compound dilutions are prepared from 100% DMSO stocks. A total of 8 serial dilutions are made (1/3 in 100% DMSO). Compounds are diluted 1/50 in growth medium to prepare 4× stocks of each tested concentration. 50 μL from each 4× stock concentration is added to the 100 μL cell suspension and incubated for 30 minutes prior stimulus addition. A 4× stimulus stock is prepared using anti-CD3+anti-CD28 antibodies. Antibody mix is added to the cell/compounds suspension in 50 μL at 5 μg/mL final concentration. Compounds are tested in duplicates. Plates are transferred to 37° C./CO2 incubator for 24 hours. After incubation 130 μL of supernatant is collected for IL-2 determination while MTT toxicity analysis is performed on remaining cells/medium.

T1 sequence (Q04759 whole entry): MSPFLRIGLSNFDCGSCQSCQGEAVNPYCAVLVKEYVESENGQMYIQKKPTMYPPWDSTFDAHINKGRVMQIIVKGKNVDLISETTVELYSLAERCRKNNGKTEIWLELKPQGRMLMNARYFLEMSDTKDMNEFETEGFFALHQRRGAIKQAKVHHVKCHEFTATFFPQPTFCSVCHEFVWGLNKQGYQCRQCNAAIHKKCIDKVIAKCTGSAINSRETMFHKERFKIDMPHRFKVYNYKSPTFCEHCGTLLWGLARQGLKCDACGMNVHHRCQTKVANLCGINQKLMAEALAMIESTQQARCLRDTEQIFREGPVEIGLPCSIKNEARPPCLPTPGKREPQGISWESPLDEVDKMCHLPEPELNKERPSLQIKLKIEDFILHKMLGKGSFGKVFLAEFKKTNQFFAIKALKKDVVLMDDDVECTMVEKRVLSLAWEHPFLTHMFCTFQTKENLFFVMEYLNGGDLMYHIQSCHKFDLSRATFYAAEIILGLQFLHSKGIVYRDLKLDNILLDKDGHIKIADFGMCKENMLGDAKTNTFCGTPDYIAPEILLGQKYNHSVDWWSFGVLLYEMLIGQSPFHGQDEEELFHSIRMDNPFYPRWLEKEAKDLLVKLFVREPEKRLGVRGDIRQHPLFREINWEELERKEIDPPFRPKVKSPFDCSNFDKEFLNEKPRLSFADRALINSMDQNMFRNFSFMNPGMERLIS

As for `C[C@@H]1C(=O)NN=C2COc3cc(-c4ccccc4CO)c(N(C)C4(C)CN(CCO)C4)cc3N21` [Example 195], the IC50 against PKCθ was less than 250 nM; at PKCα it was 1000 to 10000 nM. Also, the EC50 in assay [1] is less than 250 nM.

`CC1C(=O)NN=C2COc3cc(-c4ccccc4)c(NC4(C)CNC4)cc3N21` (stereo not drawn) [Example 79, 4-Methyl-6-(3-methyl-azetidin-3-ylamino)-7-phenyl-2,10-dihydro-9-oxa-1,2,4a-triaza-phenanthren-3-one trifluoroacetic acid]: the IC50 at PKCθ is 250 to 1000 nM; on PKCα, 1000 to 10000 nM. For the same molecule, the EC50 in assay [1] lay in the range of 1000 to 10000 nM.

Turning to `COc1cccc(-c2cc3c(cc2NC2CNC2)N2C(=NNC(=O)C2C)CO3)c1` (racemic) [Example 20], the IC50 was less than 250 nM on PKCθ and 1000 to 10000 nM on PKCα. Also, the EC50 in assay [1] is less than 250 nM.

For the molecule `CC1C(=O)NN=C2COc3cc(-c4ccc(F)c(F)c4)c(NC4CNC4)cc3N21` (racemic) [Example 23], the IC50 against PKCθ was less than 250 nM; at PKCα it was 1000 to 10000 nM. In addition, the EC50 in assay [1] was less than 250 nM.

As for `Cc1cc2c(cc1OC1CNC1)N1C(=NNC(=O)C1C)CO2` (stereo not drawn) [Example 67], the figures for the IC50 on PKCθ and on PKCα were less than 250 nM and 1000 to 10000 nM, respectively. The EC50 in assay [1] is less than 250 nM.

For the molecule `CCc1cn(C2(C)CNC2)c2cc3c(cc12)OCC1=NNC(=O)[C@@H](C)N13` [Example 156, (R)-8-Ethyl-1-methyl-10-(3-methyl-azetidin-3-yl)-3,5-dihydro-10H-6-oxa-3,4,10,11b-tetraaza-cyclopenta[b]phenanthren-2-one hydrochloride], the IC50 against PKCθ was less than 250 nM; at PKCα it was 1000 to 10000 nM. In assay [1], the EC50 was in the range of 250 to 1000 nM.

In the case of `COCc1ccccc1-c1cc2c(cc1N(C)C1(C)CN(C)C1)N1C(=NNC(=O)[C@H]1C)CO2` [Example 181], the half-maximal inhibitory concentration (IC50) against PKCθ is less than 250 nM; on PKCα, 1000 to 10000 nM. In assay [1], the EC50 was 250 to 1000 nM.

Consider `CC(C)c1cc2c(cc1[C@@H](C)C1(C)CN(CCO)C1)N1C(=NNC(=O)[C@H]1C)CO2` [Example 138, (R)-6-{(R)-1-[1-(2-Hydroxy-ethyl)-3-methyl-azetidin-3-yl]-ethyl}-7-isopropyl-4-methyl-2,10-dihydro-9-oxa-1,2,4a-triaza-phenanthren-3-one hydrochloric acid], for which the IC50 was less than 250 nM against PKCθ and 250 to 1000 nM on PKCα. In addition, in assay [1], the EC50 was 250 to 1000 nM.

`CC1C(=O)NN=C2COc3cc(-c4ccc(Cl)cc4Cl)c(NC4CNC4)cc3N21` (racemic) [Example 43]: the IC50 at PKCθ is less than 250 nM; on PKCα, 1000 to 10000 nM. Besides, in assay [1], the EC50 is less than 250 nM.

In the case of `Cc1cc2c(cc1N(C)C1CNC1)N1C(=NNC(=O)C1C)CO2` (stereo not drawn) [Example 55, 6-(Azetidin-3-yl-methyl-amino)-4,7-dimethyl-2,10-dihydro-9-oxa-1,2,4a-triaza-phenanthren-3-one trifluoroacetic acid], the IC50 lay in the range of 250 to 1000 nM at PKCθ and 1000 to 10000 nM at PKCα. Moreover, the EC50 in assay [1] is 1000 to 10000 nM.

As to `CC1C(=O)NN=C2COc3cc(C(F)(F)F)c(C4CCNCC4)cc3N21` (stereo not drawn) [Example 120, 1-Methyl-9-(piperidin-4-yl)-8-(trifluoromethyl)-3,5-dihydrobenzo[5,6][1,4]oxazino[3,4-c][1,2,4]triazin-2(1H)-one trifluoroacetic acid], the IC50 at PKCθ was less than 250 nM; at PKCα it was 1000 to 10000 nM. For the same molecule, the EC50 in assay [1] fell in the range of 250 to 1000 nM.

As for `CC1C(=O)NN=C2COc3ccc(N4CCCC4CN)cc3N21` (stereo not drawn) [Example 117, 6-(2-Aminomethyl-pyrrolidin-1-yl)-4-methyl-2,10-dihydro-9-oxa-1,2,4a-triaza-phenanthren-3-one trifluoroacetic acid], the IC50 on PKCθ is less than 250 nM; at PKCα, 1000 to 10000 nM. Also, the EC50 in assay [1] was in the range of 250 to 1000 nM.

Regarding `CCN(c1cc2c(cc1-c1ccccc1F)OCC1=NNC(=O)C(C)N12)C1(C)CN(C)C1` (stereo not drawn) [Example 166, 6-[(1,3-Dimethyl-azetidin-3-yl)-ethyl-amino]-7-(2-fluoro-phenyl)-4-methyl-2,10-dihydro-9-oxa-1,2,4a-triaza-phenanthren-3-one hydrochloride acid], the IC50 against PKCθ and on PKCα was less than 250 nM each time. For the same molecule, the EC50 in assay [1] is less than 250 nM.

In the case of `Cc1cc2c(cc1C1CCNCC1)N1C(=NNC(=O)C1C)CO2` (stereo not drawn) [Example 75, 4,7-Dimethyl-6-piperidin-4-yl-2,10-dihydro-9-oxa-1,2,4a-triaza-phenanthren-3-one trifluoroacetic acid], the IC50 on PKCθ is less than 250 nM; at PKCα, 1000 to 10000 nM. The EC50 in assay [1] lay in the range of 250 to 1000 nM.

With `CC1C(=O)NN=C2COc3cc(-c4ccc(Cl)c(Cl)c4)c(NC4CNC4)cc3N21` (racemic) [Example 25], the IC50 against PKCθ is less than 250 nM; at PKCα, 1000 to 10000 nM. Further, the EC50 in assay [1] is less than 250 nM.

As to `C[C@@H]1CN(CCO)CC[C@@H]1c1cc2c(cc1-c1ccccc1F)OCC1=NNC(=O)[C@@H](C)N12` [Example 207], the values for the IC50 against PKCθ and on PKCα were less than 250 nM and 1000 to 10000 nM, respectively. Also, the EC50 in assay [1] was 250 to 1000 nM.

Regarding `CC1C(=O)NN=C2COc3cc(-c4ccc5ccccc5c4)c(NC4CNC4)cc3N21` (racemic) [Example 36], the values for the IC50 at PKCθ and at PKCα were less than 250 nM and 1000 to 10000 nM, respectively. In assay [1], the EC50 was less than 250 nM.

For `C[C@@H]1C(=O)NN=C2COc3cc(-c4ccc(OC(F)(F)F)cc4)c(NC4CNC4)cc3N21` [Example 11], the IC50 against PKCθ was 250 to 1000 nM; at PKCα it was 1000 to 10000 nM. The EC50 in assay [1] is less than 250 nM.

`Cc1ccc(-c2cc3c(cc2NC2CNC2)N2C(=NNC(=O)C2C)CO3)cc1F` (racemic) [Example 18]: the IC50 on PKCθ is less than 250 nM; on PKCα, 1000 to 10000 nM. Besides, the EC50 in assay [1] is less than 250 nM.

On to `CC1C(=O)NN=C2COc3cc(Oc4ccccc4)c(NC4CNC4)cc3N21` (stereo not drawn) [Example 106, 6-(Azetidin-3-ylamino)-4-methyl-7-phenoxy-2,10-dihydro-9-oxa-1,2,4a-triaza-phenanthren-3-one trifluoroacetic acid], for which the IC50 was less than 250 nM against PKCθ and 1000 to 10000 nM on PKCα. For the same molecule, the EC50 in assay [1] is 250 to 1000 nM.

Regarding `Cc1cc(F)cc(-c2cc3c(cc2NC2CNC2)N2C(=NNC(=O)C2C)CO3)c1` (racemic) [Example 33], the figures for the IC50 against PKCθ and at PKCα were less than 250 nM and 1000 to 10000 nM, respectively. The EC50 in assay [1] was 250 to 1000 nM.

For the molecule `CC(C)c1cc2c(cc1[C@@H]1CCNC[C@@H]1C)N1C(=NNC(=O)[C@H]1C)CO2` [Example 202], the figures for the IC50 against PKCθ and on PKCα were less than 250 nM and 1000 to 10000 nM, respectively. The EC50 in assay [1] is less than 250 nM.

With `C[C@@H]1C(=O)NN=C2COc3cc4ccn(C5(C)CNC5)c4cc3N21` [Example 148, (R)-1-Methyl-10-(3-methyl-azetidin-3-yl)-3,5-dihydro-10H-6-oxa-3,4,10,11b-tetraaza-cyclopenta[b]phenanthren-2-one hydrochloride], the IC50 is less than 250 nM against PKCθ and 250 to 1000 nM at PKCα. Moreover, the EC50 in assay [1] is less than 250 nM.

Turning to `CC1C(=O)NN=C2COc3cc(-c4ccc(N(C)C)cc4)c(NC4CNC4)cc3N21` (racemic) [Example 19], the values for the IC50 against PKCθ and at PKCα were 250 to 1000 nM and 1000 to 10000 nM, respectively. In assay [1], the EC50 is less than 250 nM.

With `CC[C@@H]1CNCCN1c1cc2c(cc1-c1ccccc1F)OCC1=NNC(=O)[C@@H](C)N12` [Example 226], the concentration for half-maximal inhibition (IC50) on PKCθ is less than 250 nM; on PKCα, 250 to 1000 nM. Moreover, in assay [1], the EC50 lay within 250 to 1000 nM.

Take `CC1C(=O)NN=C2COc3ccc(NC4(C(C)C)CNC4)cc3N21` (stereo not drawn) [Example 113, 9-((3-Isopropylazetidin-3-yl)amino)-1-methyl-3,5-dihydrobenzo[5,6][1,4]oxazino[3,4-c][1,2,4]triazin-2(1H)-one trifluoroacetic acid]: the results for the IC50 on PKCθ and on PKCα were less than 250 nM and 1000 to 10000 nM, respectively. Further, the EC50 in assay [1] was less than 250 nM.

`Cc1cc2c(cc1N1CCC13CCNCC3)N1C(=NNC(=O)C1C)CO2` (stereo not drawn) [Example 115, 1,8-Dimethyl-9-(1,7-diazaspiro[3.5]nonan-1-yl)-3,5-dihydrobenzo[5,6][1,4]oxazino[3,4-c][1,2,4]triazin-2(1H)-one trifluoroacetic acid]: the concentration for half-maximal inhibition (IC50) was less than 250 nM on PKCθ and 1000 to 10000 nM on PKCα. The EC50 in assay [1] was less than 250 nM.

For the molecule `CC1C(=O)NN=C2COc3cc(-c4ccccc4F)c(N4CC5CCC4CN5C)cc3N21` (stereo not drawn) [Example 236], the results for the IC50 against PKCθ and at PKCα were less than 250 nM and 1000 to 10000 nM, respectively. In addition, the EC50 in assay [1] is 1000 to 10000 nM.

For `C[C@@H]1C(=O)NN=C2COc3cc(-c4ccc(F)cc4F)c(NC4CNC4)cc3N21` [Example 4], the IC50 was less than 250 nM against PKCθ and 1000 to 10000 nM on PKCα. Besides, the EC50 in assay [1] was less than 250 nM.
